The source of these data is PMC3026633 (Neuropharmacology, 2010).

The target of one assay is α1β2P206Cγ2 GABAR (Rattus norvegicus, UniProt P18508+P62813+P63138, P230C). The experiment in a line: Two-electrode voltage clamp of GABA-gated current in Xenopus oocytes. The class given is cell-based. As to conditions: 100nM DMCM, saturating.
The target of another assay is wild-type α1β2γ2 GABAR (Rattus norvegicus, UniProt P18508+P62813+P63138). Conditions: WT GABARs; DMCM; ref Boileau and Czajkowski, 1999; Hanson and Czajkowski, 2008; cited from earlier work.
In another assay the target is α1E122Cβ2γ2 GABAR (Rattus norvegicus, UniProt P18508+P62813+P63138, E149C). The experiment in a line: Two-electrode voltage clamp of GABA-gated current in Xenopus oocytes. The class given is cell-based.
A further assay has as its target α1R131Cβ2γ2 GABAR (Rattus norvegicus, UniProt P18508+P62813+P63138, R158C). The description is as above. It is filed as cell-based. Conditions: 1μM flumazenil.

α1E122Cβ2γ2 GABAR, sequence (P62813 28-455 E149C): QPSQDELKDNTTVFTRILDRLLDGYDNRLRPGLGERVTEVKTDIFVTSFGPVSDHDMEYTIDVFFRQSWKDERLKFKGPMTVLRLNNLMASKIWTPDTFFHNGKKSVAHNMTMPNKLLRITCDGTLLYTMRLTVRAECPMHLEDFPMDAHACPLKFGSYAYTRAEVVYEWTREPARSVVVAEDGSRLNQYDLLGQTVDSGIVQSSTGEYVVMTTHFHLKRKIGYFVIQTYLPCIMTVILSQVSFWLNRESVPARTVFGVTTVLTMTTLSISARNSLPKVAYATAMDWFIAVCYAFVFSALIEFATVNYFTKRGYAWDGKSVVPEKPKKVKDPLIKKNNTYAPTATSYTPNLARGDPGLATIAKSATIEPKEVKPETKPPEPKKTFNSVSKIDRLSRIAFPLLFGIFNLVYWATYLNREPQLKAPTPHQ
α1E122Cβ2γ2 GABAR, sequence (P63138 25-474 limits assumed): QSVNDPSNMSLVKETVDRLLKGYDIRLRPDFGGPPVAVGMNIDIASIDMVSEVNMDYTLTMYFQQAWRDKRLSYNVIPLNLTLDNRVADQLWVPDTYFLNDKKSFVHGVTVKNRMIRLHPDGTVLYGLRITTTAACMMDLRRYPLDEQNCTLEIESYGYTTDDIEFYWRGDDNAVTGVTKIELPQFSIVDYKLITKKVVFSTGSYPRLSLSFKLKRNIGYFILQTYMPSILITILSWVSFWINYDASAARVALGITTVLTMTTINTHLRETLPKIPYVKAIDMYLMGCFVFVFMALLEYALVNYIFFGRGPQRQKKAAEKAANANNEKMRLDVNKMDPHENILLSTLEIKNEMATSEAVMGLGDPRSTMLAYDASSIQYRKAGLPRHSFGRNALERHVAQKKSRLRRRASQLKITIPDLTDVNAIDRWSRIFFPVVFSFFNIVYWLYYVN
α1E122Cβ2γ2 GABAR, sequence (P18508 39-466): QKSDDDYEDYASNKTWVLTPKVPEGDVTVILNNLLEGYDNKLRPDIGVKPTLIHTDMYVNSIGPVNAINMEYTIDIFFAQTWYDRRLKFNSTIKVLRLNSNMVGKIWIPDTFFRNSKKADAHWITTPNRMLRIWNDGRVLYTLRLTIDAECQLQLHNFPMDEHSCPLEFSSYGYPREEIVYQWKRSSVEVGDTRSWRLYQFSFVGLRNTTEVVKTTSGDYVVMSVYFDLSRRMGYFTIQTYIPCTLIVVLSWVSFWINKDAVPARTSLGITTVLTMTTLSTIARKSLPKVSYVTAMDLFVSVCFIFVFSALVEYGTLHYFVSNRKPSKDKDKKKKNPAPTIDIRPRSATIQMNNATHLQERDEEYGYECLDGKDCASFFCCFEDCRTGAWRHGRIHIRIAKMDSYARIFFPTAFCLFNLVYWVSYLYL
wild-type α1β2γ2 GABAR, sequence (P62813 28-455): as the sequence (P62813 28-455 E149C) above, with C122E counted along it
wild-type α1β2γ2 GABAR, sequence (P63138 25-474 limits assumed): as the sequence (P63138 25-474 limits assumed) above
wild-type α1β2γ2 GABAR, sequence (P18508 39-466): as the sequence (P18508 39-466) above
α1β2P206Cγ2 GABAR, sequence (P62813 28-455): as the sequence (P62813 28-455 E149C) above, with C122E counted along it
α1β2P206Cγ2 GABAR, sequence (P63138 25-474 P230C limits assumed): as the sequence (P63138 25-474 limits assumed) above, with P206C counted along it
α1β2P206Cγ2 GABAR, sequence (P18508 39-466): as the sequence (P18508 39-466) above
α1R131Cβ2γ2 GABAR, sequence (P62813 28-455 R158C): as the sequence (P62813 28-455 E149C) above, with C122E, R131C counted along it
α1R131Cβ2γ2 GABAR, sequence (P63138 25-474 limits assumed): as the sequence (P63138 25-474 limits assumed) above
α1R131Cβ2γ2 GABAR, sequence (P18508 39-466): as the sequence (P18508 39-466) above

Take `CCc1c(C(=O)OC)ncc2[nH]c3cc(OC)c(OC)cc3c12` [DMCM, 3-carbomethoxy-4-ethyl-6,7-dimethoxy-β-carboline]: the “inhibition of IGABA (IGABA+DRUG/IGABA)” value is reported as 0.45 fold at α1β2P206Cγ2 GABAR and 0.45 fold on α1E122Cβ2γ2 GABAR (100nM DMCM, saturating). For the same compound, at wild-type α1β2γ2 GABAR, the “maximal attenuation of GABA current (IGABA+DRUG/IGABA)” value is listed as 0.62 fold.

Take `CCOC(=O)c1ncn2c1CN(C)C(=O)c1cc(F)ccc1-2` [flumazenil]: the “effect on GABA-gated current” value at α1R131Cβ2γ2 GABAR and on α1E122Cβ2γ2 GABAR (1μM flumazenil) was “had no effect” throughout.
